{
  "source": "patent US20110136876A1",
  "about": "“Altering Pharmacokinetics of Pirfenidone Therapy” (INTERMUNE, INC., priority 2007, published 2011)",
  "key": {"[1]": {"assay": "Single dose study: pharmacokinetics of pirfenidone, fasted versus fed", "assay_type": "in vivo", "settings": "human, plasma, 801 mg; for half-life: oral, read-out: mean absorption half life (t1/2, abs) (converted)", "procedure": "(§1) A study was designed to evaluate the effect of food, antacids, and food taken with antacids on adverse events associated with pirfenidone use. The trial was conducted as a randomized, open-label, four-treatment crossover, with a single dose for each treatment period and a 2-day washout period between study treatments. 16 healthy adults between the ages of 50 and 79 years having body mass indices between 18 and 30 (inclusive) were enrolled and completed all 4 treatment arms. The treatment arms were as follows:\n(§2) A) pirfenidone alone (Fasted);\n(§3) B) pirfenidone within 1 minute following a dose of antacid (20 mL Mylanta® Maximum Strength Liquid) (Fasted+Antacid);\n(§4) C) pirfenidone 5 minutes after completing a standard meal (Fed); and\n(§5) D) pirfenidone 5 minutes after completing a standard meal, then within 1 minute, followed by a dose of antacid (Fed+Antacid).\n(§6) All subjects were admitted to the clinic for clinical evaluation the day prior to receiving the first dose of the study medication and remained confined for 13 days. Following an overnight fast of at least 10 hours (h), subjects were randomized to one of the above-described 4 treatment sequences. Each dose of pirfenidone (3×267 mg capsules) was administered orally with 240 mL room temperature water on days 1, 4, 7, and 10 in the morning, following an overnight fast of at least 10 hours. The washout period between treatments was 2 days. A standard meal consisted of 2 fried eggs, 2 strips of bacon, 2 slices of toast, 2 pats of butter, hash brown potatoes (4 oz), and whole milk (8 oz).\nOf 7 subjects who reported nausea, 5 of 16 (31%) were fasted compared to only 2 of 16 (13%) fed subjects. Of 5 subjects reporting dizziness, 4 of 16 (25%) were fasted, while only 1 of 16 (6%) was fed. Of 3 subjects reporting somnolence, 2 of 16 (13%) were fasted and 1 of 16 (6%) were fed. Of 3 subjects reporting headaches, 2 of 16 (13%) were fasted and 1 of 16 (6%) were fed."}, "[2]": {"assay": "Single dose study: adverse events with food, antacid, or food plus antacid", "assay_type": "in vivo, human", "settings": "for dizziness incidence / nausea incidence / somnolence incidence / headache incidence: of 16 subjects", "procedure": "as §1, §2, §3, §4, §5, §6\nOn each study day, adverse events were reviewed with the patients as follows. Before administration of the first dose of the study drug, study site personnel noted the occurrence and nature of each subject's medical condition(s). During the trial, site personnel again noted any change in the condition(s) or occurrence and nature of any adverse events. The severity of adverse events were graded based on the Modified Common Toxicity Criteria and the relationship of the study drug to the adverse event determined."}, "[3]": {"assay": "Multiple dose study: adverse events on multiple ascending daily doses taken with food", "assay_type": "in vivo, human", "procedure": "A second study was designed to examine incidences of adverse events on multiple ascending daily doses of pirfenidone. The trial was conducted as an open-label, escalating-dose study with no washout period between dose escalations. 25 healthy adults between the ages of 45 and 79 (inclusive) having body mass indices between 18 and 30 (inclusive) were enrolled. 22 adults completed the treatment. Each volunteer received from 801 mg/day to 4005 mg/day of pirfenidone divided into three equal doses as follows:\nDays 1-2: 1 capsule three times a day (TID) (801 mg total daily dose (TDD))\nDay 3: 1 capsule in the morning (0800) (267 mg TDD)\nDays 4-5: 2 capsules TID (1602 mg TDD)\nDay 6: 2 capsules in the morning (534 mg TDD)\nDays 7-8: 3 capsules TID (2403 mg TDD)\nDay 9: 3 capsules in the morning (801 mg TDD)\nDay 12: 4 capsules in the morning (1068 mg TDD)\nDay 15: 5 capsules in the morning (1335 mg TDD)\nAll subjects were admitted to the clinic for clinical evaluation the day before the first dose of study medication and remained confined for 17 days. Each subject received all dose levels of the study drug unless adverse events or the clinical judgment of the trial physician precluded the continuation of treatment. All doses were taken with 240 mL room temperature water and with food (excluding grapefruit juice). TID doses times were ˜0800, ˜1200, and ˜1800."}, "[4]": {"settings": "801 to 4005 mg/day TID with food, of 25 subjects"}},
  "note": "Like-named read-outs stand apart in the source and are kept apart here.",
  "data": [
    {"molecule": "Cc1ccc(=O)n(-c2ccccc2)c1", "note": "[pirfenidone, 5-methyl-1-phenyl-2-(1H)-pyridone]", "values": [
      {"measurement": "half-life", "setting": "[1]; with food (fed)", "value": "~1.78", "unit": "h"},
      {"measurement": "half-life", "setting": "[1]; without food (fasted)", "value": "~0.572", "unit": "h"},
      {"measurement": "Cmax", "setting": "[1]; po, fasted (without food), single oral dose 3x267 mg capsules, healthy adults", "value": 15700, "unit": "ng/mL"},
      {"measurement": "AUC", "setting": "[1]; po, fasted, single oral dose 3x267 mg capsules", "value": 72700, "unit": "ng·h/mL"},
      {"measurement": "AUC", "setting": "[1]; po, fed, single oral dose 3x267 mg capsules", "value": 64600, "unit": "ng·h/mL"},
      {"measurement": "dizziness incidence", "setting": "[2]; all treatment arms", "value": 38, "unit": "%"},
      {"measurement": "nausea incidence", "setting": "[2]; all treatment arms", "value": 44, "unit": "%"},
      {"measurement": "somnolence incidence", "setting": "[2]; all treatment arms", "value": 25, "unit": "%"},
      {"measurement": "dizziness incidence", "setting": "[2]; fasted", "value": 25, "unit": "%"},
      {"measurement": "headache incidence", "setting": "[2]; fasted", "value": 13, "unit": "%"},
      {"measurement": "nausea incidence", "setting": "[2]; fasted", "value": 31, "unit": "%"},
      {"measurement": "somnolence incidence", "setting": "[2]; fasted", "value": 13, "unit": "%"},
      {"measurement": "dizziness incidence", "setting": "[2]; fed", "value": 6, "unit": "%"},
      {"measurement": "headache incidence", "setting": "[2]; fed", "value": 6, "unit": "%"},
      {"measurement": "nausea incidence", "setting": "[2]; fed", "value": 13, "unit": "%"},
      {"measurement": "somnolence incidence", "setting": "[2]; fed", "value": 6, "unit": "%"},
      {"measurement": "subjects with at least 1 adverse event", "setting": "[2]; in total, all treatment arms, 16 subjects", "value": 75, "unit": "%"},
      {"measurement": "subjects with adverse events whose adverse events were mild", "setting": "[2]; of the 12 subjects with at least 1 adverse event", "value": 75, "unit": "%"},
      {"measurement": "subjects who experienced an adverse event", "setting": "[2]; with food (Fed), 16 subjects", "value": 31.3, "unit": "%"},
      {"measurement": "subjects who experienced an adverse event", "setting": "[2]; with food and antacid (Fed+Antacid), 16 subjects", "value": 25, "unit": "%"},
      {"measurement": "subjects who experienced an adverse event", "setting": "[2]; within 1 minute following a dose of antacid (Fasted+Antacid), 16 subjects", "value": 56.3, "unit": "%"},
      {"measurement": "subjects who experienced an adverse event", "setting": "[2]; without food (Fasted), 16 subjects", "value": 56.3, "unit": "%"},
      {"measurement": "subjects with at least one adverse event", "setting": "[3]; 801 to 4005 mg/day TID with food, 25 subjects", "value": 92, "unit": "%"},
      {"measurement": "headache incidence", "setting": "[3]; [4]", "value": 28, "unit": "%"},
      {"measurement": "nausea incidence", "setting": "[3]; [4]", "value": 36, "unit": "%"},
      {"measurement": "somnolence incidence", "setting": "[3]; [4]", "value": 32, "unit": "%"},
      {"measurement": "subjects with adverse events whose adverse events were mild", "setting": "[3]; of the 23 subjects with at least one adverse event", "value": 96, "unit": "%"}
    ]}
  ]
}
